The target of assay [1] is T1, CyHV-2 RR (ORF23-GST + ORF141-His) (Cyprinid herpesvirus 2, UniProt K7PBF0+K7PBQ3).
T1 construct: gene CyHV2_ORF23; recombinant ORF23-GST and ORF141-His mixed in vitro; RR described in general as two homodimers (alpha2beta2)
Put plainly: RR activity, dCDP formation by HPLC after borate column. Particulars: hydroxyurea 80 μM; 10 μg of both recombinant proteins; CDP 80 μM, ATP 2.7 mM, other nucleotides; 50 mM HEPES-KOH, 5 mM MgCl2, 50 mM DTT, 20 mM ferrous ammonium sulfate; 1 h at 4°C. It is filed as biochemical.

Assay [2] concerns the target T1, CyHV-2 RR (ORF23-GST + ORF141-His). The assay is described as above. Type of assay: biochemical. Particulars: CDP 80 μM with ATP 2.7 mM, dATP, dTTP, dGTP, UDP, ADP, GDP; both subunits needed; 50 mM HEPES-KOH, 5 mM MgCl2, 50 mM DTT, 20 mM ferrous ammonium sulfate; 1 h at 4°C.

Turning to `NC(=O)NO` [hydroxyurea], the “% activity reduction at 80 μM” value in assay [1] was 52%.

In the case of `Nc1ccn([C@@H]2O[C@H](COP(=O)(O)OP(=O)(O)O)[C@@H](O)[C@H]2O)c(=O)n1` [CDP], the “RR activity, dCDP formation by HPLC after borate column” value in assay [2] was “interaction between ORF23-GST and ORF141-His proteins is essential for catalyzing the reduction of CDP to”.

Values taken from PMC10151572, “The identification of viral ribonucleotide reductase encoded by ORF23 and ORF141 genes and effect on CyHV-2 replication” (Frontiers in Microbiology, 2023).
